These are literature values, as cited in patent publication US20090018107A1, “NOVEL COMPOSITION TO INCREASE MUSCLE STRENGTH” (ORAL DELIVERY TECHNOLOGY LTD., priority 2007, published 2009).

The conditions of series [1]: U.S. Pat. No. 5,880,117.
The conditions of series [2]: U.S. Pat. No. 6,989,378.

The structures appear in SMILES notation. Some results are limits rather than exact numbers.

As for `C[C@]12CC[C@H]3[C@@H](CCC4=C[C@@H](O)CC[C@@]43C)[C@@H]1CC[C@@H]2O` [4-androstene-3β,17β-diol], in series [1], the “Period of decline after the peak” value was 3 to 4 h and the “Time to peak concentration after administration” value is at most 90 min.
As for `CCCCCCCCCCC(=O)O[C@H]1CC[C@H]2[C@H]3[C@H](CC[C@]12C)[C@H]1CCC(=O)C=C1C[C@H]3C` [MENT undecanoate, (7α,17β)-7-methyl-17-[(1-ox-oundecyl)oxy]estr-4-en-3one], the “Solubility in oily media” value in series [2] is “good solubility”.
